Data set [1] in a line: Aqueous solubility (salt screen). The conditions noted are these: free base form.
The next data set concerns the target nicotinic α7 receptor (Homo sapiens, UniProt P36544). Nature of the data set: Electrophysiology, co-application with ACh (hump currents, Dynaflow chip). The format is cell-based. How it is done: Hump currents are defined as the tail current observed during co-application with endogenous ACh following agonist removal.
The channels were prepared as follows: Control solution (channel #2), application ligand itself (channel #3), application of acetylcholine itself (channel #1), and application of mixture of acetylcholine and ligand (channel #4).
Curve 1, FIG. 7B: The bar above the curve indicates time of ACh application. The curve represents current induced by a one second application of 70 μM ACh. The curve illustrates the result from moving the cell from channel #2 to channel #1 for a 1 second application of ACh and back to channel 2 (washout).
Curve 4, FIG. 7B: Curve 4 represents a repetition of Curve 1 at the end of measurements after application of the ligand and ACh/ligand mixture (recovery).
Curve 2, FIG. 7B: The down/up arrows indicates time of application.

Another data set relates to CD-1 mice. Nature of the data set: Formalin test. The format is in vivo, mouse. On the procedure:
Subjects (adult male CD-1 mice (Charles River, Raleigh, N.C.) weighing approximately 20-25 grams) were removed from their home cage and weighed, then placed in a clear Plexiglas™ observation box for an acclimation period of 20-30 minutes. Mice were then removed from the observation chambers and (2S,3R)—N-2-((3-pyridinyl)methyl)-1-azabicyclo[2.2.2]oct-3-yl)-3,5-difluorobenzamide (as the hydrochloride salt in 0.9% saline) (1, 3 or 10 mg/kg s.c. (calculated with respect to the free base)), morphine (5 mg/kg; s.c.) or 0.9% saline vehicle was administered subcutaneously in a volume of 1 mL/kg. Mice were then returned to the chamber for the predetermined pretreatment time of 30 minutes for (2S,3R)—N-2-((3-pyridinyl)methyl)-1-azabicyclo[2.2.2]oct-3-yl)-3,5-difluorobenzamide and morphine.
The subject's assigned paw was grasped gently and formalin solution was injected into the paw intra-dermally in the middle on the dorsal side. Once injected, the subject was immediately returned to its observation chamber and a timer was started to mark the beginning of Phase I. Each subject was videotaped for the entire 40-minute session. […] The time spent licking during that 1 min interval was recorded, and the presence or absence of paw favoring was noted.
For data analyses, phase I of the test was defined as 0 to 5 minutes after formalin injection, and phase II was defined as 20 to 40 minutes after formalin injection. The time spent licking during the 1 minute intervals during those time frames was recorded and graphed as mean±S.E.M. For comparisons across treatment groups, 1-way analyses of variance (ANOVAs) were performed for each phase of the session with treatment as the […] variable. Post-hoc analyses were performed when appropriate to determine specific group differences.

For the next data set, the system named is db/db mouse. The experiment in a line: Murine model of type 2 diabetes mellitus (db/db mouse). It is filed as in vivo. The conditions noted are these: 1.0 mg/kg oral once daily. An excerpt: The db/db mouse, a well established model of type 2 diabetes mellitus, is a leptin-deficient mutant that expresses an obese phenotype and also commonly expresses metabolic symptoms including hyperglycemia, hyperlipidemia and hyperinsulinemia (Halaas et al., 1995 and Lee et al., 1996). This experimental animal model of diabetes was employed in a study designed to determine the effects of (2S,3R)—N-2-((3-pyridinyl)methyl)-1-azabicyclo[2.2.2]oct-3-yl)-3,5-difluorobenzamide on body mass and several additional metabolic parameters.
In this study, (2S,3R)—N-2-((3-pyridinyl)methyl)-1-azabicyclo[2.2.2]oct-3-yl)-3,5-difluorobenzamide was repeatedly administered orally (via gavage) at 1.0 mg/kg once daily starting from the age of approximately 3 weeks and continuing throughout the 7-week study. Nondiabetic heterozygote littermate mice (db/+; designated “Db”) were used as controls. Body weight and food intake were determined twice weekly. The α7 antagonist methyllycaconitine (MLA) was also given concurrently via gavage at 3 mg/kg daily to selected cohorts of db/db (designated “db”) or db/+mice. At the end of the 7-week dosing regimen, total growth rates (overall body weight gain) and average daily food intake were calculated. In addition, glucose levels were assessed in mice fasted overnight. Furthermore, blood sample analytes from mice fasted overnight were collected for measurements of tumor necrosis factor-a (TNF-α), triglycerides and glycosylated hemoglobin (HbA1c). All data are expressed as mean±SEM. For each parameter investigated, differences among all groups were compared by one-way ANOVA with post-hoc Neuman-Keuls multiple comparison test.

Data set [2] relates to ovalbumin-sensitized mice. Nature of the data set: White blood cell and differential cell counts in BALF. It is filed as in vivo, mouse. On the procedure:
Using the method of Hamelmann et al, (2S,3R)—N-2-((3-pyridinyl)methyl)-1-azabicyclo[2.2.2]oct-3-yl)-3,5-difluorobenzamide was evaluated for possible inhibition of airway hyper-responsiveness in mice. Briefly, ovalbumin (OVA)-sensitized animals, 12 animals per group, were challenged by nasal inhalation with aerosolized 5% OVA for 25 min on days 21, 23, and 25. The mice were treated with vehicle or (2S,3R)—N-2-((3-pyridinyl)methyl)-1-azabicyclo[2.2.2]oct-3-yl)-3,5-difluorobenzamide subcutaneously (s.c.) twice daily from day 21 to day 26 or once daily intratracheally (i.t.), preceding ovalbumin aerosol challenge by 30 min on days 21, 23 and 25 as well as methacholine challenge or bronchoalveolar lavage fluids (BALF) harvest on day 26. Dexamethasone, the reference standard, was administered at 3 mg/kg orally (p.o.) once daily 60 min before OVA challenge on day 21, 23 and 25 and 60 min before methacholine provocation or BALF harvest on day 26. Noninvasive measurements of airway responsiveness were performed by using whole body plethysmography, in which increases in enhanced pause (Penh) serve as an index of airway obstruction. Responses to inhaled methacholine were measured and calculated as percentage of respective baseline values. Unpaired Student's t-test was used for comparison between the vehicle control and the sham group; one-way ANOVA and Dunnett's post-hoc analyses were applied for comparison between the vehicle control and treated groups. Statistical significance is considered at P<0.05.

Results on one compound are retold here after patent US9173876B2, “Preparation and therapeutic applications of (2S,3R)-N-2-((3-pyridinyl)methyl)-1-azabicyclo[2.2.2]oct-3-yl)-3,5-difluorobenzamide” (Targacept, Inc., priority 2009, dated 2015).

nicotinic α7 receptor, sequence (P36544 23-502): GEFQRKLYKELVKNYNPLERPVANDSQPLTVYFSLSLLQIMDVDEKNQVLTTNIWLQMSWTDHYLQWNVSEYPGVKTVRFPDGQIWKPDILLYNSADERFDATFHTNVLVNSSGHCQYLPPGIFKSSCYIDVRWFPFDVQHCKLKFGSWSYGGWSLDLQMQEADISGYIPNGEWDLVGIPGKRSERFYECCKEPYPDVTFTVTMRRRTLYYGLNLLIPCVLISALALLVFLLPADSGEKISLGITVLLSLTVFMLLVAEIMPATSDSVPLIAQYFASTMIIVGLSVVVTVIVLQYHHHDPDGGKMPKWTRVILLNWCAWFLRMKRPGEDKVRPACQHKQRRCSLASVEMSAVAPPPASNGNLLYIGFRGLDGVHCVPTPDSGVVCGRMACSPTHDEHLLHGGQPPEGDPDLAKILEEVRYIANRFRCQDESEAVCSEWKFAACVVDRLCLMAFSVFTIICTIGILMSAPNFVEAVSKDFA

For `O=C(N[C@@H]1C2CCN(CC2)[C@H]1Cc1cccnc1)c1cc(F)cc(F)c1` [Compound A], in data set [1], the Water solubility entry is given as “limited”. Further, the “Hump current on application of compound following ACh” value on nicotinic α7 receptor (200 nM compound with ACh, Curve 3 FIG. 7B) is “profound “hump” current”. Further, the “Current produced by compound alone” value at nicotinic α7 receptor (200 nM, 5 second application, Curve 2 FIG. 7B) is “do not produce robust macro currents”. Further, the “Concentration at EMAX of hump current” value at nicotinic α7 receptor (100-500 nM range, n=4, FIG. 7C) is on record as “approximately 500 nM”. Moreover, at nicotinic α7 receptor (FIG. 6), the “Effect on ACh-induced current on co-application with ACh” value is listed as “enhanced ACh-induced current”. Moreover, in the data set on CD-1 mice (10 mg/kg s.c., 20-40 min after formalin, P<0.05), the “Time spent licking the paw, phase II” value is listed as “significant in reducing the time spent licking the paw”. The “Time spent licking, phase I” value in the data set with CD-1 mice (1, 3 or 10 mg/kg s.c., 0-5 min after formalin) is “no statistically significant dose”. For the same compound, the “Time spent licking, phase I or phase II, re-scored across the entire time period” value in the data set on CD-1 mice (subsequent analysis of the original videotapes) was “failed to achieve statistical significance”. The “All parameters measured (body weight gain, food intake, glucose, HbA1c, TNF-α, triglycerides)” value with db/db mouse (7 weeks, obese db/db mice vs vehicle) is “significant decrease in all parameters measured”. In the data set on db/db mouse (7 weeks, obese mice vs obese controls, FIG. 16), the “Average daily food consumption” value was “significantly lower”. Moreover, the Triglyceride levels entry with db/db mouse (7 weeks, obese mice vs vehicle, FIG. 20) is recorded as “significantly lower”. For the same compound, the “Total body weight gain” value in the data set on db/db mouse (7 weeks, obese mice, FIG. 15) was “significantly lower”. Moreover, the “Fasting plasma glucose levels” value in the data set with db/db mouse (7 weeks, obese mice, FIG. 17) is given as “significantly inhibited”. Also, the “Glycosylated HbA1c levels” value in the data set with db/db mouse (7 weeks, obese mice, FIG. 18) was “significantly inhibited”. Further, the “Pro-inflammatory cytokine TNF alpha” value in the data set with db/db mouse (7 weeks, obese mice, FIG. 19) was “significantly reduced”. For the same compound, the Food consumption result in the data set with db/db mouse (lean mice (Db), FIG. 16) is reported as “unaffected”. Moreover, the “Monocytes in BALF” value in data set [2] (10 mg/kg SC) is “reduced”. In addition, the “Total WBC and eosinophils in BALF” value in data set [2] (0.1 and 1 mg/kg SC) was “significantly reduced”. Moreover, the “Lymphocytes in BALF” value in data set [2] (0.1 and 1 mg/kg SC and 10 mg/kg IT) was “reduced”. The “Eosinophils and white blood cells in BALF (summary)” value in data set [2] (multiple administrations, lacks a consistent dose-response relationship) is “significant reduction in eosinophils and white blood cells in BALF”.
